Experimental data: ChEMBL document CHEMBL1201862, “PubChem BioAssay data set” (2004)
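48-hour exposure; five concentrations; linearly interpolated endpoints. GI50 marks 50% less growth.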 Activity calls are given as the source filed them. Cut-off read from the data, not from the text of the source: active = GI50 up to about 1.1 µM and inactive = higher.

What was measured:
Experiment in all cases: growth of human tumour cells (NCI), 48 h
[1] = tested on: OVCAR-4
[2] = tested on: NCI-H460
[3] = tested on: LOX IMVI
[4] = tested on: DMS-273
[5] = tested on: ACHN
[6] = tested on: CAKI-1
[7] = tested on: SK-MEL-28
[8] = tested on: SF-539
[9] = tested on: SNB-78
[10] = tested on: M14
[11] = tested on: NCI-H522
[12] = tested on: SF-268
[13] = tested on: K562
[14] = tested on: COLO 205
[15] = tested on: 786-0
[16] = tested on: OVCAR-8
[17] = tested on: TK-10
[18] = tested on: HT-29
[19] = tested on: NCI-H23
[20] = tested on: HCC 2998
[21] = tested on: HCT-15
[22] = tested on: DLD-1
[23] = tested on: HOP-18
[24] = tested on: EKVX
[25] = tested on: UACC-62
[26] = tested on: UACC-257
[27] = tested on: DMS-114
[28] = tested on: SW-620
[29] = tested on: SK-MEL-5
[30] = tested on: RPMI-8226
[31] = tested on: A549
[32] = tested on: SF-295
[33] = tested on: XF498
[34] = tested on: SNB-19
[35] = tested on: HL-60
[36] = tested on: OVCAR-5
[37] = tested on: KM-20L2
[38] = tested on: RXF 631
[39] = tested on: KM12
[40] = tested on: Malme-3M
[41] = tested on: SK-MEL-2
[42] = tested on: SK-OV-3
[43] = tested on: UO-31
[44] = tested on: SNB-75
[45] = tested on: SN12C
[46] = tested on: MOLT-4
[47] = tested on: CCRF-CEM
[48] = tested on: IGROV-1
[49] = tested on: A498
[50] = tested on: LXFL 529
[51] = tested on: RXF 393
[52] = tested on: U-251

Cn1c2c([N+](=O)[O-])cccc2c(=O)c2c(O)cc3c(c21)C=CC(C)(C)O3
GI50 [1]: 20.8 µM (inactive) | GI50 [2]: 36.6 µM (inactive) | GI50 [3]: 25.2 µM (inactive) | GI50 [4]: 33.2 µM (inactive) | GI50 [5]: 43.5 µM (inactive) | GI50 [6]: 18.7 µM (inactive) | GI50 [7]: 84.5 µM (inactive) | GI50 [8]: 22.5 µM (inactive) | GI50 [9]: 38 µM (inactive) | GI50 [10]: 86.7 µM (inactive) | GI50 [11]: 11.2 µM (inactive) | GI50 [12]: 38.9 µM (inactive) | GI50 [13]: 39.3 µM (inactive) | GI50 [14]: 44.8 µM (inactive) | GI50 [15]: 32 µM (inactive) | GI50 [16]: 29.6 µM (inactive) | GI50 [17]: 54.6 µM (inactive) | GI50 [18]: 23.4 µM (inactive) | GI50 [19]: 30.8 µM (inactive) | GI50 [20]: 20.7 µM (inactive) | GI50 [21]: 20.7 µM | GI50 [22]: 24.8 µM (inactive) | GI50 [23]: < 0.01 µM (active) | GI50 [24]: 6.59 µM (inactive) | GI50 [25]: 21.7 µM (inactive) | GI50 [26]: 46.5 µM (inactive) | GI50 [27]: 22.8 µM (inactive) | GI50 [28]: 69.3 µM (inactive) | GI50 [29]: 28.3 µM (inactive) | GI50 [30]: 18.4 µM (inactive) | GI50 [31]: 34.8 µM (inactive) | GI50 [32]: 24.1 µM (inactive) | GI50 [33]: 11.5 µM (inactive) | GI50 [34]: 41.7 µM (inactive) | GI50 [35]: 16.6 µM (inactive) | GI50 [36]: 35.7 µM (inactive) | GI50 [37]: 17.7 µM (inactive) | GI50 [38]: 33.7 µM (inactive) | GI50 [39]: 23.2 µM (inactive) | GI50 [40]: 40.2 µM (inactive) | GI50 [41]: 35.9 µM (inactive) | GI50 [42]: 46.7 µM (inactive) | GI50 [43]: 40.6 µM (inactive) | GI50 [44]: 23.9 µM (inactive) | GI50 [45]: 52 µM (inactive) | GI50 [46]: 42.9 µM (inactive) | GI50 [47]: 41 µM (inactive) | GI50 [48]: 34.4 µM (inactive) | GI50 [49]: 5.51 µM (inactive) | GI50 [50]: 25.6 µM (inactive) | GI50 [51]: 18.1 µM (inactive) | GI50 [52]: > 100 µM (inactive)
